The record followed here is DBAASP.

The structures appear in SMILES notation. Values after ≈ are worked out from the molar mass of the structure shown.

For orientation: MIC means the smallest concentration in the dilution series that meets the test's criterion for growth inhibition.

Common to all, as to assay: ≥ marks a high value that may be exact or a test limit, other limits are often not marked, values filed in µg/mL are converted to µM
For test [1], the system named is Candida albicans ATCC 2002.
Test [2] deals with Escherichia coli ATCC 25922.
Test [3] relates to Staphylococcus aureus ATCC 2592.
Test [4] concerns Pseudomonas aeruginosa Ps4.
The subject of test [5] is Enterococcus faecalis ATCC 29212.
The test system of the next test is Leuconostoc lactis.

Turning to `CC[C@H](C)[C@H](NC(=O)[C@@H](NC(=O)[C@@H]1CCCN1C(=O)[C@H](CC(C)C)NC(=O)[C@@H](N)Cc1ccccc1)[C@@H](C)CC)C(=O)N[C@@H](C)C(=O)N[C@@H](CCCCN)C(=O)N[C@@H](CC(C)C)C(=O)N[C@@H](CC(C)C)C(=O)NCC(=O)NCC(=O)N[C@@H](CC(C)C)C(=O)N[C@@H](CC(C)C)C(N)=O` [FLPIIAKLLGGLL], the minimal inhibitory concentration (MIC) in test [1] worked out at 18.3 µM (≈ 25 µg/mL); in test [2] it was 21.9 µM (≈ 30 µg/mL); in test [3], 3.66 µM (≈ 5 µg/mL).

On to `CC[C@H](C)[C@H](NC(=O)[C@H](CC(N)=O)NC(=O)[C@H](CCCN=C(N)N)NC(=O)[C@H](CCC(N)=O)NC(=O)[C@H](Cc1c[nH]c2ccccc12)NC(=O)[C@H](C)NC(=O)[C@@H](N)Cc1ccccc1)C(=O)N[C@@H](CCCN=C(N)N)C(=O)N[C@@H](CCCCN)C(=O)N[C@H](C(=O)N[C@@H](CCCN=C(N)N)C(N)=O)C(C)C` [FAWQRNIRKVR], for which, in test [4], the MIC is ≥ 170 µM.

As to `NC(=O)[C@H](CCCN=C(N)N)NC(=O)[C@H](CCCN=C(N)N)NC(=O)[C@H](Cc1c[nH]c2ccccc12)NC(=O)[C@H](CCCN=C(N)N)NC(=O)[C@H](CCCN=C(N)N)NC(=O)[C@H](Cc1c[nH]c2ccccc12)NC(=O)[C@@H](N)Cc1ccccc1` [FWRRWRR], in test [4], the MIC is ≥ 108 µM.

Turning to `CC[C@H](C)[C@H](NC(=O)[C@H](CCCN=C(N)N)NC(=O)[C@@H](NC(=O)[C@H](CCCN=C(N)N)NC(=O)[C@H](CCCN=C(N)N)NC(=O)[C@H](CCC(N)=O)NC(=O)[C@H](Cc1c[nH]c2ccccc12)NC(=O)[C@@H](N)Cc1ccccc1)[C@@H](C)CC)C(=O)N[C@@H](CCCN=C(N)N)C(=O)N[C@@H](CCCN=C(N)N)C(N)=O` [FWQRRIRIRR], the MIC in test [4] is ≥ 168 µM.

With `CC[C@H](C)[C@H](NC(=O)[C@@H](N)Cc1ccccc1)C(=O)N[C@@H](Cc1c[nH]c2ccccc12)C(=O)N[C@@H](CCCN=C(N)N)C(=O)N[C@@H](Cc1c[nH]c2ccccc12)C(=O)N[C@@H](CCCN=C(N)N)C(=O)N[C@@H](Cc1c[nH]c2ccccc12)C(=O)N[C@@H](CCCN=C(N)N)C(N)=O` [FIWRWRWR], in test [4], the MIC was ≥ 47.9 µM.

With `CC[C@H](C)[C@H](NC(=O)CNC(=O)[C@@H](NC(=O)[C@@H](NC(=O)[C@H](Cc1cnc[nH]1)NC(=O)[C@H](CCCCN)NC(=O)[C@H](C)NC(=O)[C@H](Cc1ccccc1)NC(=O)[C@H](CC(=O)O)NC(=O)[C@H](CC(C)C)NC(=O)[C@H](CC(C)C)NC(=O)CN)C(C)C)[C@@H](C)CC)C(=O)N[C@@H](C)C(=O)N[C@@H](CO)C(=O)N[C@@H](CCCCN)C(=O)N[C@@H](CC(C)C)C(N)=O` [GLLDFAKHVIGIASKL], the MIC in test [5] is 100 µM (≈ 168 µg/mL); against Leuconostoc lactis it was ≥ 50 µM.

Turning to `CC[C@H](C)[C@H](NC(=O)[C@H](CC(N)=O)NC(=O)[C@H](CCCN=C(N)N)NC(=O)[C@H](CCC(N)=O)NC(=O)[C@H](Cc1c[nH]c2ccccc12)NC(=O)[C@@H](N)Cc1ccccc1)C(=O)N[C@@H](CCCN=C(N)N)C(=O)N[C@@H](CCCCN)C(=O)N[C@H](C(=O)N[C@@H](CCCCN)C(=O)N[C@@H](CCCCN)C(N)=O)C(C)C` [FWQRNIRKVKK], the MIC in test [4] is ≥ 166 µM.
